Legend:
[1] = test system: rat smooth muscle cells (RSMC); assay: Chemotaxis assay, rat smooth muscle cells; assay type: cell-based; conditions: for inhibition of D2A-induced RSMC migration: attractant D2A; for inhibition of VN-induced RSMC migration: attractant VN
Description: (§1) Chemotaxis assay was performed as described (Degryse et al., 1999, 2001a, 2001b) with modified Boyden chambers. Filters (5 μm pore size, Neuro Probe, Gaithersburg, Md.) were treated with collagen I (100 μg/ml) and fibronectin (10 μg/ml, Roche).≈40-50,000 cells in serum-free DMEM were added to the upper well and the chemoattractants tested added to the lower well. When present, antibodies, or inhibitors were added in both wells. After overnight migration at 37° C., cells remaining on the upper surface of filters were scraped off and filters were fixed in methanol and stained in a solution of 10% (w/v) crystal violet in 20% (v/v) methanol. The experiments were performed at least twice in triplicate and the results, expressed as fold over control, are the mean ±SD of the number of cells counted in ten high power fields per filter. Random cell migration, i.e. migration in the absence of chemoattractant, was given the arbitrary value of 100%.

[2] = test system: human HT1080 fibrosarcoma cells; assay: Matrigel invasion assay; assay type: cell-based; conditions: for inhibition of EGF-dependent invasion / inhibition of insulin-dependent invasion: HT1080, 100 pM; for inhibition of VN-induced invasiveness / inhibition of uPA-induced invasiveness: HT1080, at about the same concentration (around 1 pM); for inhibition of FN-induced invasion: HT1080, at the same concentration; for stimulation of Matrigel invasiveness of HT1080 cells: substance alone, 24 hours at 37° C.; for concentration of peak stimulation of Matrigel invasiveness: HT1080, dose-dependent
KG-1 cells = assay: Chemotaxis assay of non adherent cells, Boyden micro-chamber; assay type: cell-based, human; conditions: for chemotaxis of KG-1 cells: peptide as chemoattractant, 1 hour at 37° C.
Description: Chemotaxis assay of non adherent cells was performed as described (Degryse et al., 2001; FEBS lett. 505: 249-254) using modified Boyden micro-chamber with the exception that the filter was not treated. 50,000 cells were added in the top well in serum-free RPMI medium and allowed to migrate for 1 hour at 37° C. The molecules to be tested as chemoattractant were diluted in serum-free RPMI medium and added in the lower well of the Boyden chamber. Experiments were performed in triplicate. Results are the mean ±SD of the number of cells counted in five high power fields. Migration in the absence of chemoattractant is referred to as 100%.

[3] = test system: Rat Smooth Muscle Cells and HT1080 Human Fibrosarcoma Cells; assay: Boyden chamber assays, pleiotropic inhibition of chemotaxis; assay type: cell-based
Description: In Boyden chamber assays, D2A-Ala and GAAG inhibit not only VN-dependent and uPA-dependent chemotaxis (as reported above), but also EGF— and UTP-dependent chemotaxis. The effect is dose-dependent. Notice that the EGF-dependent and the UTP-dependent chemotaxis work through receptors (EGF-receptor and P2Y2 receptor, respectively), that are different among themselves and are different from those employed by uPA (uPAR) and VN (αvβ3). We conclude that these two inhibitors are general inhibitors of chemotaxis.

Stat1 = assay: Immunofluorescence microscopy, Stat1 distribution; assay type: cell-based, rat; conditions: RSMC; for Stat1 activation and translocation into the nucleus: 30 minutes at 37° C., peptide 1 pM or VN 1 μg/ml
Description: (§2) As previously described (Degryse et al., 1999; 2004) 15,000-25,000 cells (20-40% confluence), were seeded on glass coverslips in 2 cm^2 well, cultured for 24 hours in DMEM plus 10% FCS, washed with PBS and cultured for another 24 hours without FCS. After stimulation, RSMC were fixed for 20 min at RT with 3% paraformaldehyde, 2% sucrose in PBS pH 7.5, washed 3 times with PBS-BSA 0.2%, permeabilized with 20 mM hepes pH 7.4, 300 mM saccharose, 50 mM NaCl, 3 mM MgCl2, 0.5% (v/v) Triton X-100 for 3 min at 4° C., and washed 3 times with PBS-BSA 0.2%. RSMC were incubated in PBS-BSA 2% for 15 min at 37° C., then with anti-Stat1 primary antibodies for 30 min at 37° C., washed 3 times with PBS-BSA 0.2%, and further incubated with PBS-BSA 2% for 15 min at 37° C. Cells were stained with the secondary TRITC-antibody and with FITC-phalloidin for visualization of filamentous actin, for 30 min at 37° C. DAPI (4′,6-diamidino-2-phenylindole, Roche) was used to label the nucleus. Finally, after 3 washes with PBS-BSA 0.2%, one with distilled water, coverslips were mounted with 20% (w/v) Mowiol. Fluorescence Photographs were taken with a Zeiss Axiophot microscope
To quantify the activation of Stat1, random pictures were taken and nuclei positively stained for Stat1 were counted and expressed in percent.

[4] = test system: human smooth muscle cells from the aorta (AoSMC); assay: Chemotaxis assay, human aortic smooth muscle cells; assay type: cell-based
Description: as §1

HEK-293-uPAR cells = assay: Chemotaxis assay, HEK-293-uPAR cells; assay type: cell-based, human; conditions: HEK-293-uPAR; for cell migration in the presence of VN: VN 1 μg/ml + peptide 1 pM; for cell migration: peptide alone 1 pM
Description: as §1

HEK-293 cells = assay: Chemotaxis assay, HEK-293 cells; assay type: cell-based, human; conditions: for cell migration in the presence of VN: HEK-293, VN 1 μg/ml + peptide 1 pM; for cell migration: HEK-293, peptide alone 1 pM
Description: as §1

uPAR-αvβ3 complexes = target: T1, uPAR-αvβ3 complexes (Homo sapiens, UniProt P05106+P06756); assay: Pull-down assay, 125I-suPAR with purified αvβ3 integrin; assay type: binding
T1 construct: purchased Chemicon (integrins); American Diagnostica (uPA)
T1 sequence (P06756 31-889 limits assumed): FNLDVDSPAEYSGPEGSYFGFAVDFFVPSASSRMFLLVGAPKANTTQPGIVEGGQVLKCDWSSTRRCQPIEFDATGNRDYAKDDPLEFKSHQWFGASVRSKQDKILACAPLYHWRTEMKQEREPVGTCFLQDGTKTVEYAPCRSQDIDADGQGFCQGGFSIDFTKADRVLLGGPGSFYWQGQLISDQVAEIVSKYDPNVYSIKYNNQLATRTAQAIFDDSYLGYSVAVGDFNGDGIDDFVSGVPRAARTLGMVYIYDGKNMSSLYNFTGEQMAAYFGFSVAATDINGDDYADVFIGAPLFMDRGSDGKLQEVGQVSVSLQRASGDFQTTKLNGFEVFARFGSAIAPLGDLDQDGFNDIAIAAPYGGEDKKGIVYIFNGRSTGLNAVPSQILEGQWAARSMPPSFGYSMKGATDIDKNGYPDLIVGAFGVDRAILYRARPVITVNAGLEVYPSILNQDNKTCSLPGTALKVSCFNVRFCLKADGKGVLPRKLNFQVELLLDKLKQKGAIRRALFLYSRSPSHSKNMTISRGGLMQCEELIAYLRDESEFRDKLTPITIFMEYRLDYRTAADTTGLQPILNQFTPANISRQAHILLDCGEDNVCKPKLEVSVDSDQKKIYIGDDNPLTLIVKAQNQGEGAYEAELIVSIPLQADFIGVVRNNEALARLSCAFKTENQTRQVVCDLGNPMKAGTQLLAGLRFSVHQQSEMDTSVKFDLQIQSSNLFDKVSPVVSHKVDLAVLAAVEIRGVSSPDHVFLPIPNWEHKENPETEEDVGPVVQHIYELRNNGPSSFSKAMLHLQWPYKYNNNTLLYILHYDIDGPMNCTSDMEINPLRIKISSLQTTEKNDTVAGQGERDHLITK
T1 sequence (P06756 891-1048 limits assumed): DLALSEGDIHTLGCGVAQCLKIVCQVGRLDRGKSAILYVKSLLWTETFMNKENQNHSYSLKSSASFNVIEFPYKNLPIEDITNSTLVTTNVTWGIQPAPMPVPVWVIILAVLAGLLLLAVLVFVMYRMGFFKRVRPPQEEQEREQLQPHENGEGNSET
T1 sequence (P05106 27-788): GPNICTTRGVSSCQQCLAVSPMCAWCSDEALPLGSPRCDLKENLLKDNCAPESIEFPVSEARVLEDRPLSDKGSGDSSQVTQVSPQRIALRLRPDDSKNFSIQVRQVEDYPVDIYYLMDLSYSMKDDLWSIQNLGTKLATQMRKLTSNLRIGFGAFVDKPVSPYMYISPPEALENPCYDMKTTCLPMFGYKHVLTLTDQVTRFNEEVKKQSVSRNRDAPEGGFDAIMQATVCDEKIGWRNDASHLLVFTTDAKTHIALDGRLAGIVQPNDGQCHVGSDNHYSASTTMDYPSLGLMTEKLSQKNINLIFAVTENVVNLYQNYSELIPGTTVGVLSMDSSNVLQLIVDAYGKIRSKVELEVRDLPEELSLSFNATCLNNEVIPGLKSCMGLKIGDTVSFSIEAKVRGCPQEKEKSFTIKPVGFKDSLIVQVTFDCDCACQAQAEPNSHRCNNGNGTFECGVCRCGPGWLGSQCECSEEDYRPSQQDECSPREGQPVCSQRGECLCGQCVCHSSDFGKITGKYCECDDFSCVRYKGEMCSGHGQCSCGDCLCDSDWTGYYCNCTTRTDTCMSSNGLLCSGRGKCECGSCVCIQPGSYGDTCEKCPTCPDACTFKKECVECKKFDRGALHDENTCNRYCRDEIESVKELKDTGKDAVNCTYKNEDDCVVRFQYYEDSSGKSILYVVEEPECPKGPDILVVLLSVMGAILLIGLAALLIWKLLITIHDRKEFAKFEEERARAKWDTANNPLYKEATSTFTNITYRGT
Description: (§3) Soluble uPAR (suPAR) was radioiodinated (as for VN, see above) at a specific activity of 1.5×10^5 cpm/ng. A mix composed of 2 μg of either purified αvβ3 or α5β1 integrin, and […] of ^125I-suPAR was incubated for 4 hours at 4° C. in the absence (control) or in the presence of 4 μg of uPA with or without 5 μg of either D2A or D2A-Ala peptide in binding buffer, (RPMI plus 0.02% BSA, 10 mM HEPES pH 7.4, total volume 300 μl). Complexes were immunoprecipitated with 3 μg of anti-αvβ3 (LM609) or anti-α5β1 monoclonal antibody, and 60 μl of protein G-agarose beads (Amersham Biosciences), Beads were washed three times in binding buffer, extracted in reducing sample buffer, and proteins were fractionated by SDS-PAGE. Gels were analyzed by autoradiography and densitometry. Results are presented as percentage of relative density units normalized to uPA alone.

[5] = test system: human smooth muscle cells from the coronary artery (CASMC); assay: Chemotaxis assay, human coronary artery smooth muscle cells; assay type: cell-based
Description: as §1

RSMC = assay: Immunofluorescence microscopy, actin cytoskeleton and cell morphology; assay type: cell-based, rat; conditions: 30 minutes at 37° C., peptide 1 pM or VN 1 μg/ml
Description: as §2

uPAR-α5β1 complexes = target: T2, uPAR-α5β1 complexes (Homo sapiens, UniProt P05556+P08648); assay: Pull-down assay, 125I-suPAR with purified α5β1 integrin; assay type: binding; conditions: in the presence of uPA
T2 construct: purchased Chemicon (integrins); American Diagnostica (uPA)
T2 sequence (P08648 42-894 limits assumed): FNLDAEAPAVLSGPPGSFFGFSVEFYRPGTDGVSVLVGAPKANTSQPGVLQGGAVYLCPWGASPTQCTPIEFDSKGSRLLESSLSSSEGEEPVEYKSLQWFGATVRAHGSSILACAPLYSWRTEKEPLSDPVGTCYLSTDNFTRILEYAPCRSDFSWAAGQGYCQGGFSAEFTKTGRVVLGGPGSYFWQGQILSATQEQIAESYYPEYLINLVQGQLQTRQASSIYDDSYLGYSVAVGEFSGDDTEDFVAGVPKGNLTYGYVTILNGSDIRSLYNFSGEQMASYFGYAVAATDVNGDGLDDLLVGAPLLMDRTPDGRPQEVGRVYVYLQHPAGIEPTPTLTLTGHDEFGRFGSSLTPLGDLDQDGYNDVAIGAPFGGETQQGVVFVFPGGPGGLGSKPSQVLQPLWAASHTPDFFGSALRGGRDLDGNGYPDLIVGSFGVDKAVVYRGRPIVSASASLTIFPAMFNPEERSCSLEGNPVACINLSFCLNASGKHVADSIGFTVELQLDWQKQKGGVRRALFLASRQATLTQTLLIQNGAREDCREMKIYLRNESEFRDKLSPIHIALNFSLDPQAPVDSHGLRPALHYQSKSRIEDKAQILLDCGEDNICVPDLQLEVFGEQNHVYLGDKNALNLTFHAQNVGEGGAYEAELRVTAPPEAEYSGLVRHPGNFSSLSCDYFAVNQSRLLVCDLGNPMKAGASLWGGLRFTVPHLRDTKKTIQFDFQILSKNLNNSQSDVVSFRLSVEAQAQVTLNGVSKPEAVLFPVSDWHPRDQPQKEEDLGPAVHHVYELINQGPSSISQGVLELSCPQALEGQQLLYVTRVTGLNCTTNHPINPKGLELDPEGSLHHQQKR
T2 sequence (P08648 895-1049 limits assumed): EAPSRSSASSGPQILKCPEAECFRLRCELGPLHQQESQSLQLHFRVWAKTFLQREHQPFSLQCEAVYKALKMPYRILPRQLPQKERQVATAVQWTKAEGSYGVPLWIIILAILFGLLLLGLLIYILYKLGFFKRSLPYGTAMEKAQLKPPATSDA
T2 sequence (P05556 21-798): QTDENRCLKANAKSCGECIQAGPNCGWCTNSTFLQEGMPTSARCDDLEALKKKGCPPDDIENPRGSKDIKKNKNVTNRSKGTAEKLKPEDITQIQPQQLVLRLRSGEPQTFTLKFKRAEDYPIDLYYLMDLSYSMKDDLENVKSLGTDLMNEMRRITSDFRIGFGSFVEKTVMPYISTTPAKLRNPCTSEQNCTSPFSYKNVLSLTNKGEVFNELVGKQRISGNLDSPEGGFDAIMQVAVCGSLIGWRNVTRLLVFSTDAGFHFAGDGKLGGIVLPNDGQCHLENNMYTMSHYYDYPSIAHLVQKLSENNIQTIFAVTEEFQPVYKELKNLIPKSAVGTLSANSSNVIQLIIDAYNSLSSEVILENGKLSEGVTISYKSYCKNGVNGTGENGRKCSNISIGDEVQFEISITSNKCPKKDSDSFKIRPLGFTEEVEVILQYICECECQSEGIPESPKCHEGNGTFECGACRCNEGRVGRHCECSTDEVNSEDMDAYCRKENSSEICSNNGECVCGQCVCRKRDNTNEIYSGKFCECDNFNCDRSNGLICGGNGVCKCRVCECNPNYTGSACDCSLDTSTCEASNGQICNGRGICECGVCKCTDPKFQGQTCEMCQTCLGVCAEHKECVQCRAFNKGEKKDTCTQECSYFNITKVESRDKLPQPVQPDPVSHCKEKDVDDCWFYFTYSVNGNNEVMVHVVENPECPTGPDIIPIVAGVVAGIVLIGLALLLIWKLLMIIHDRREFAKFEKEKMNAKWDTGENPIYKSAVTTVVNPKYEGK
Description: as §3

LB6-D1HD3 cells = assay: Chemotaxis assay, LB6-D1HD3 cells (uPAR lacking domain 2); assay type: cell-based, mouse
Description: as §1

N#C/C(=C/c1ccc(O)c(O)c1)C(=O)NCc1ccccc1 [AG-490, reference compound]
inhibition of D2A-induced RSMC migration ([1]; RSMC): inhibited
inhibition of VN-induced RSMC migration ([1]; RSMC): inhibited

COc1cccc(-c2cc(=O)c3ccccc3o2)c1N [PD98059, reference compound]
inhibition of D2A-induced RSMC migration ([1]; RSMC): Neither VN- nor D2A-induced cell migration were blocked
inhibition of VN-induced RSMC migration ([1]; RSMC): Neither VN- nor D2A-induced cell migration were blocked

GAAG (Amino acid sequence motif) [shorter version of D2A-Ala]
inhibition of EGF-dependent invasion [2]: inhibit
inhibition of insulin-dependent invasion [2]: inhibit
inhibition of VN-induced invasiveness [2]: inhibit
inhibition of uPA-induced invasiveness [2]: inhibit
inhibition of FN-induced invasion [2]: inhibit
stimulation of Matrigel invasiveness of HT1080 cells [2]: have no effects
inhibition of vitronectin (VN)-induced chemotaxis of KG-1 cells (KG-1 cells): inhibited
inhibition of VN-dependent chemotaxis [3]: inhibit
inhibition of uPA-dependent chemotaxis [3]: inhibit
inhibition of EGF-dependent chemotaxis [3]: inhibit
inhibition of UTP-dependent chemotaxis [3]: inhibit

GEEG
concentration of peak stimulation of Matrigel invasiveness [2]: around 1 pM
stimulation of Matrigel invasiveness of HT1080 cells [2]: stimulate

IQEGAAGRPKDDR [D2A-Ala, D2A with two glutamic acids changed into two alanines]
Stat1 activation and translocation into the nucleus (Stat1): failed to activate Stat1
inhibition of VN-induced translocation of Stat1 (Stat1; peptide 1 pM with VN 1 μg/ml): inhibited
inhibition of EGF-dependent invasion [2]: inhibit
inhibition of insulin-dependent invasion [2]: inhibit
inhibition of VN-induced invasiveness [2]: inhibit
inhibition of uPA-induced invasiveness [2]: inhibit
inhibition of FN-induced invasion [2]: inhibit
stimulation of Matrigel invasiveness of HT1080 cells [2]: have no effects
inhibition of VN-induced migration [4]: totally inhibited
inhibition of vitronectin (VN)-induced chemotaxis of KG-1 cells (KG-1 cells): inhibited
cell migration in the presence of VN (HEK-293-uPAR cells): 108.18 ± 13.90 % of control
cell migration (HEK-293-uPAR cells): 108.72 ± 17.37 % of control
cell migration in the presence of VN (HEK-293 cells): 94.50 ± 19.58 % of control
cell migration (HEK-293 cells): 110.19 ± 26.63 % of control
effect on uPAR-αvβ3 co-immunoprecipitation (uPAR-αvβ3 complexes; in the presence of uPA): prevented
inhibition of FN-induced migration ([1]; RSMC): inhibited
inhibition of LN-induced migration ([1]; RSMC): inhibited
stimulation of RSMC migration (chemotactic activity) ([1]; RSMC): failed to stimulate cell migration
inhibition of VN-induced RSMC migration ([1]; RSMC): completely abrogated
concentration at which an effect on VN-induced cell migration is already visible ([1]; VN-stimulated RSMC): 10 fM
concentration giving complete inhibition of VN-induced cell migration ([1]; VN-stimulated RSMC): 1 pM
inhibition of VN-induced migration [5]: totally inhibited
cell morphology and actin cytoskeleton organization (RSMC): did not promote the change of morphology and reorganization of actin cytoskeleton
inhibition of VN-dependent chemotaxis [3]: inhibit
inhibition of uPA-dependent chemotaxis [3]: inhibit
inhibition of EGF-dependent chemotaxis [3]: inhibit
inhibition of UTP-dependent chemotaxis [3]: inhibit

IQEGEEGRPKDDR [D2A]
Stat1 activation and translocation into the nucleus (Stat1): induced its translocation into the nucleus
concentration of peak stimulation of Matrigel invasiveness [2]: around 1 pM
stimulation of Matrigel invasiveness of HT1080 cells [2]: stimulate
chemotaxis of KG-1 cells (KG-1 cells): stimulated migration
cell migration in the presence of VN (HEK-293-uPAR cells): 400.88 ± 17.41 % of control
cell migration (HEK-293-uPAR cells): 325.48 ± 14.42 % of control
cell migration in the presence of VN (HEK-293 cells): 190.23 ± 35.24 % of control
cell migration (HEK-293 cells): 106.98 ± 11.78 % of control
reduction of coimmunoprecipitated suPAR compared to uPA alone (uPAR-αvβ3 complexes; uPA plus peptide, αvβ3): approximately 50%
stimulation of RSMC migration (chemotactic activity) ([1]; RSMC): equally active in stimulating migration
additivity of chemotactic effects with VN ([1]; RSMC, D2A 1 pM combined with VN 1 μg/ml): did not further increase cell migration
effect on uPA-induced co-immunoprecipitation of suPAR and α5β1 (uPAR-α5β1 complexes): can also prevent
cell morphology and actin cytoskeleton organization (RSMC): a complete change of morphology and cytoskeleton organization occurred
maximal increase of migration (LB6-D1HD3 cells; LB6-D1HD3 cells, at 10 pM, peptide per se): 2 fold
effect on response to VN of non-responsive LB6-D1HD3 cells (LB6-D1HD3 cells; with VN 1 μg/ml): restored the response to VN

RDDKPRGEEGEQI [D2B]
chemotaxis of KG-1 cells (KG-1 cells): also promotes the migration
stimulation of RSMC migration (chemotactic activity) ([1]; RSMC): equally active in stimulating migration
